{"source": "patent US20240358693A1", "about": "“METHODS OF TREATING PAIN” (Aisa Pharma, Inc., priority 2023, published 2024)", "test_system": "participants with SSc-RP", "assay": "Scleroderma Health Assessment Questionnaire (SHAQ): disability indices and visual analog scales", "assay_type": "in vivo, human", "from_the_text": "The standard, validated, patient reported outcome measures tool for SSc patients, the Scleroderma Health Assessment Questionnaire (SHAQ), will be used to assess the participant qualify of life. Details are attached in the Appendix. The participant quality of life will be scored, and a disability index calculated for each questionnaire completed by the patient at Screening and each in-clinic visit. The absolute change in participant quality of life from baseline to the end of each dosing period will be calculated similar to frequency data as before.\nThe SHAQ includes a Raynaud's VAS, which will be reported at screening and each in-clinic visit. The absolute change in Raynaud-VAS, assessed by the participants response to the SHAQ question ‘In the past 7 days, how much have your Raynaud's interfered with your daily activities?’ at baseline and the end of each dosing period will be calculated similar to frequency data as before.\nThe SHAQ is used to calculate a Disability Index to assess the participant qualify of life. The eight categories assessed by the Disability Index are 1) dressing and grooming, 2) arising, 3) eating, 4) walking, 5) hygiene, 6) reach, 7) grip, and 8) common daily activities. For each of these categories, patients report the amount of difficulty they have in performing two or three specific activities.\nThere are four possible responses for the Disability Index questions: • Without any difficulty=0 • With some difficulty=1 • With much difficulty=2 • Unable to do=3. • The highest score reported by the patient for any component question of the eight categories determines the score for that category. • If a component question is left blank or the response is too ambiguous to assign a score, then the score for that category is determined by the remaining completed question(s). • If all component questions are blank or if more than one answer is given, then follow up with the respondent is required. • If the respondent's mark is between the response columns, then move it to the closest one. If it's directly between the two, move it to the higher one.\nEach of the disability items on the SHAQ has a companion aids/devices variable that is used to record what type(s) of assistance, if any, the participant uses for his/her usual activities. These variables (see below) are coded as follows: • 0=No assistance is needed. • 1=A special device is used by the patient in his/her usual activities. • 2=The patient usually needs help from another person. • 3=The patient usually needs BOTH a special device AND help from another person.\nThe scoring variables and scoring rules permit the computation of two disability indices, the Standard Disability Index and the Alternative Disability Index.\nThis question results in a new set of category scores that are computed by adjusting the score for each category, if necessary, based on the patient's use of an aid or device or assistance for that category. If either devices and/or help from another person are checked for a category, the score is set to “2”, unless the score is already “3” (i.e., scores of “0” or “1” are increased to “2”). For example, if the highest score for the dressing category is “1”, and the patient says they use a device for dressing, the computed category score would be “2”. The sum of the computed categories scores is then calculated and divided by the number of categories answered. This gives a score in the 0 to 3 range.\nThe aid and device variables are not used to calculate the alternative disability index; it is calculated by adding the scores for each of the categories and dividing by the number of categories answered. This gives a score in the 0 to 3 range.\nThe standard, validated, patient reported outcome measures tool for SSc patients, the SHAQ, was collected at the time points specified in the study schedules (FIG. 2 and FIGS. 4A and 4B) to assess the participant's quality of life. The SHAQ included a Raynaud's VAS that will also be reported separately.", "key": {"[1]": {"details": "Pooled Cilnidipine (10 mg or 20 mg) (N = 7), n 6"}, "[2]": {"details": "Pooled Cilnidipine (N = 6), Day 12, Modified ITT, SSc patients, Part A"}, "[3]": {"details": "Pooled Cilnidipine (N = 7), sensitivity analysis, Modified ITT, Part A"}}}
{"smiles": "COCCOC(=O)C1=C(C)NC(C)=C(C(=O)OC/C=C/c2ccccc2)C1c1cccc([N+](=O)[O-])c1", "note": "(centres unmarked) [Cilnidipine, cilnidipine]", "values": [{"measurement": "SHAQ patient reported disease severity, In-Clinic Visit (Day 12), Median", "setting": "Pooled Cilnidipine (10 mg or 20 mg) (N = 7)", "result": 1.200}, {"measurement": "SHAQ patient reported disease severity, Percent Change from Baseline, Mean", "setting": "[1]", "result": "−59.80", "unit": "%"}, {"measurement": "SHAQ patient reported disease severity, Percent Change from Baseline, Median", "setting": "[1]", "result": "−55.86", "unit": "%"}, {"measurement": "SHAQ Alternative Disability Index: Change from Baseline, Mean", "setting": "[2]", "result": 0.000}, {"measurement": "SHAQ Alternative Disability Index: Change from Baseline, Median", "setting": "[2]", "result": "−0.063"}, {"measurement": "SHAQ Alternative Disability Index: In-Clinic Visit (Day 12), Mean", "setting": "[2]", "result": 0.438}, {"measurement": "SHAQ Alternative Disability Index: In-Clinic Visit (Day 12), Median", "setting": "[2]", "result": 0.188}, {"measurement": "SHAQ Alternative Disability Index: Percent Change from Baseline, Mean", "setting": "[2]", "result": "−12.90", "unit": "%"}, {"measurement": "SHAQ Alternative Disability Index: Percent Change from Baseline, Median", "setting": "[2]", "result": "−22.22", "unit": "%"}, {"measurement": "SHAQ Standard Disability Index: Change from Baseline, Mean", "setting": "[2]", "result": "−0.063"}, {"measurement": "SHAQ Standard Disability Index: Change from Baseline, Median", "setting": "[2]", "result": 0.000}, {"measurement": "SHAQ Standard Disability Index: In-Clinic Visit (Day 12), Mean", "setting": "[2]", "result": 0.500}, {"measurement": "SHAQ Standard Disability Index: In-Clinic Visit (Day 12), Median", "setting": "[2]", "result": 0.188}, {"measurement": "SHAQ Standard Disability Index: Percent Change from Baseline, Mean", "setting": "[2]", "result": "−25.00", "unit": "%"}, {"measurement": "SHAQ Standard Disability Index: Percent Change from Baseline, Median", "setting": "[2]", "result": "−16.67", "unit": "%"}, {"measurement": "SHAQ Visual Analogue Scale - Breathing Problems: Change from Baseline, Mean", "setting": "[2]", "result": "−0.617"}, {"measurement": "SHAQ Visual Analogue Scale - Breathing Problems: Change from Baseline, Median", "setting": "[2]", "result": "−0.400"}, {"measurement": "SHAQ Visual Analogue Scale - Breathing Problems: In-Clinic Visit (Day 12), Mean", "setting": "[2]", "result": 1.200}, {"measurement": "SHAQ Visual Analogue Scale - Breathing Problems: In-Clinic Visit (Day 12), Median", "setting": "[2]", "result": 0.200}, {"measurement": "SHAQ Visual Analogue Scale - Breathing Problems: Percent Change from Baseline, Mean", "setting": "[2]", "result": "−8.17", "unit": "%"}, {"measurement": "SHAQ Visual Analogue Scale - Breathing Problems: Percent Change from Baseline, Median", "setting": "[2]", "result": "−41.33", "unit": "%"}, {"measurement": "SHAQ Visual Analogue Scale - Finger Ulcers: Change from Baseline, Mean", "setting": "[2]", "result": "−0.750"}, {"measurement": "SHAQ Visual Analogue Scale - Finger Ulcers: Change from Baseline, Median", "setting": "[2]", "result": "−0.350"}, {"measurement": "SHAQ Visual Analogue Scale - Finger Ulcers: In-Clinic Visit (Day 12), Mean", "setting": "[2]", "result": 0.617}, {"measurement": "SHAQ Visual Analogue Scale - Finger Ulcers: In-Clinic Visit (Day 12), Median", "setting": "[2]", "result": 0.350}, {"measurement": "SHAQ Visual Analogue Scale - Finger Ulcers: Percent Change from Baseline, Mean", "setting": "[2]", "result": "−17.08", "unit": "%"}, {"measurement": "SHAQ Visual Analogue Scale - Finger Ulcers: Percent Change from Baseline, Median", "setting": "[2]", "result": "−50.82", "unit": "%"}, {"measurement": "SHAQ Visual Analogue Scale - Intestinal Problems: Change from Baseline, Mean", "setting": "[2]", "result": "−1.083"}, {"measurement": "SHAQ Visual Analogue Scale - Intestinal Problems: Change from Baseline, Median", "setting": "[2]", "result": 0.000}, {"measurement": "SHAQ Visual Analogue Scale - Intestinal Problems: In-Clinic Visit (Day 12), Mean", "setting": "[2]", "result": 1.300}, {"measurement": "SHAQ Visual Analogue Scale - Intestinal Problems: In-Clinic Visit (Day 12), Median", "setting": "[2]", "result": 0.950}, {"measurement": "SHAQ Visual Analogue Scale - Intestinal Problems: Percent Change from Baseline, Mean", "setting": "[2]", "result": "−15.53", "unit": "%"}, {"measurement": "SHAQ Visual Analogue Scale - Intestinal Problems: Percent Change from Baseline, Median", "setting": "[2]", "result": "−7.06", "unit": "%"}, {"measurement": "SHAQ Visual Analogue Scale - Overall Disease Severity: Change from Baseline, Mean", "setting": "[2]", "result": "−1.350"}, {"measurement": "SHAQ Visual Analogue Scale - Overall Disease Severity: Change from Baseline, Median", "setting": "[2]", "result": "−1.550"}, {"measurement": "SHAQ Visual Analogue Scale - Overall Disease Severity: In-Clinic Visit (Day 12), Mean", "setting": "[2]", "result": 1.733}, {"measurement": "SHAQ Visual Analogue Scale - Overall Disease Severity: In-Clinic Visit (Day 12), Median", "setting": "[2]", "result": 1.300}, {"measurement": "SHAQ Visual Analogue Scale - Overall Disease Severity: Percent Change from Baseline, Mean", "setting": "[2]", "result": "−51.76", "unit": "%"}, {"measurement": "SHAQ Visual Analogue Scale - Overall Disease Severity: Percent Change from Baseline, Median", "setting": "[2]", "result": "−51.72", "unit": "%"}, {"measurement": "SHAQ Visual Analogue Scale - Pain: Change from Baseline, Mean", "setting": "[2]", "result": "−0.500"}, {"measurement": "SHAQ Visual Analogue Scale - Pain: Change from Baseline, Median", "setting": "[2]", "result": "−0.250"}, {"measurement": "SHAQ Visual Analogue Scale - Pain: In-Clinic Visit (Day 12), Mean", "setting": "[2]", "result": 1.617}, {"measurement": "SHAQ Visual Analogue Scale - Pain: In-Clinic Visit (Day 12), Median", "setting": "[2]", "result": 1.400}, {"measurement": "SHAQ Visual Analogue Scale - Pain: Percent Change from Baseline, Mean", "setting": "[2]", "result": "−29.23", "unit": "%"}, {"measurement": "SHAQ Visual Analogue Scale - Pain: Percent Change from Baseline, Median", "setting": "[2]", "result": "−48.78", "unit": "%"}, {"measurement": "SHAQ Visual Analogue Scale - Raynaud's: Change from Baseline, Mean", "setting": "[2]", "result": "−0.550"}, {"measurement": "SHAQ Visual Analogue Scale - Raynaud's: Change from Baseline, Median", "setting": "[2]", "result": "−0.600"}, {"measurement": "SHAQ Visual Analogue Scale - Raynaud's: In-Clinic Visit (Day 12), Mean", "setting": "[2]", "result": 1.667}, {"measurement": "SHAQ Visual Analogue Scale - Raynaud's: In-Clinic Visit (Day 12), Median", "setting": "[2]", "result": 1.250}, {"measurement": "SHAQ Visual Analogue Scale - Raynaud's: Percent Change from Baseline, Mean", "setting": "[2]", "result": "−18.64", "unit": "%"}, {"measurement": "SHAQ Visual Analogue Scale - Raynaud's: Percent Change from Baseline, Median", "setting": "[2]", "result": "−38.67", "unit": "%"}, {"measurement": "SHAQ Standard Disability Index: Baseline, Mean", "setting": "[3]", "result": 0.482}, {"measurement": "SHAQ Standard Disability Index: Baseline, Median", "setting": "[3]", "result": 0.375}, {"measurement": "SHAQ Standard Disability Index: Change from Baseline, Mean", "setting": "[3]", "result": "−0.054"}, {"measurement": "SHAQ Standard Disability Index: Change from Baseline, Median", "setting": "[3]", "result": 0.000}, {"measurement": "SHAQ Standard Disability Index: Day 12, Mean", "setting": "[3]", "result": 0.429}, {"measurement": "SHAQ Standard Disability Index: Day 12, Median", "setting": "[3]", "result": 0.125}, {"measurement": "SHAQ Standard Disability Index: Percent Change from Baseline, Mean", "setting": "[3]", "result": "−25.00", "unit": "%"}, {"measurement": "SHAQ Standard Disability Index: Percent Change from Baseline, Median", "setting": "[3]", "result": "−16.67", "unit": "%"}, {"measurement": "SHAQ VAS Breathing Problems: Baseline, Mean", "setting": "[3]", "result": 1.557}, {"measurement": "SHAQ VAS Breathing Problems: Baseline, Median", "setting": "[3]", "result": 0.200}, {"measurement": "SHAQ VAS Breathing Problems: Change from Baseline, Mean", "setting": "[3]", "result": "−0.529"}]}
